≈ marks a conversion by molar mass, not a printed value.

Type in all cases: functional
The test system of one assay is Klebsiella pneumoniae. Kind of assay: Antibacterial activity against Klebsiella pneumoniae MTCC 109.
Another assay relates to Pseudomonas aeruginosa. Kind of assay: Antibacterial activity against Pseudomonas aeruginosa MTCC 741.
The test system of another assay is Bacillus cereus. Kind of assay: Antibacterial activity against Bacillus cereus MTCC 430.
A further assay concerns Candida albicans. Kind of assay: Antifungal activity against Candida albicans MTCC 183. The conditions noted are these: for MIC: Candida albicans, MTCC 183.
The next assay concerns Staphylococcus aureus. The assay can be described thus: Antibacterial activity against Staphylococcus aureus MTCC 96.
The next assay relates to Aspergillus niger. Kind of assay: Antifungal activity against Aspergillus niger MTCC 282. The conditions noted are these: for MIC: Aspergillus niger, MTCC 282.
Assay [1] concerns Mycobacterium tuberculosis. The assay can be described thus: Antimycobacterial activity against Mycobacterium tuberculosis H37Rv. The conditions noted are these: for MIC: Mycobacterium tuberculosis, H37Rv.
Another assay relates to Escherichia coli. The assay can be described thus: Antibacterial activity against Escherichia coli MTCC 739.
The mark [2] stands for this setting: Klebsiella pneumoniae, MTCC 109.
Setting [3] is: Pseudomonas aeruginosa, MTCC 741.

One may read the MIC as the lowest concentration that inhibits growth of the organism. A low value points to a more susceptible organism. Regarding `COc1ccc(NC(=S)Nc2ccc(-c3nc(Oc4cccc(C)c4)c4ccccc4n3)cc2)cc1`, the “inhibition zone (IZ)” value in the assay with Klebsiella pneumoniae is listed as 24 mm; in the assay with Pseudomonas aeruginosa, 27 mm; with Bacillus cereus, 24 mm; with Candida albicans it was 28 mm; with Staphylococcus aureus, 25 mm; with Aspergillus niger, 21 mm. Further, the “inhibition zone (IZ)” value with Escherichia coli is recorded as 27 mm. Moreover, the minimal inhibitory concentration (MIC) in the assay with Klebsiella pneumoniae (setting [2]) came to 50 µg/mL (≈ 102 µM); in the assay on Pseudomonas aeruginosa (setting [3]) it was 25 µg/mL (≈ 50.8 µM); in the assay on Bacillus cereus (Bacillus cereus, MTCC 430), 50 µg/mL (≈ 102 µM); against Candida albicans, 12.5 µg/mL (≈ 25.4 µM); in the assay on Staphylococcus aureus (Staphylococcus aureus, MTCC 96), 12.5 µg/mL (≈ 25.4 µM); with Aspergillus niger, 50 µg/mL (≈ 102 µM). The MIC is 100 µg/mL (≈ 203 µM) in assay [1] and 25 µg/mL (≈ 50.8 µM) in the assay with Escherichia coli (Escherichia coli, MTCC 739). The “inhibition (INH)” value in assay [1] amounted to 97%.

On to `CCOc1ccc(NC(=O)Nc2ccc(-c3nc(Oc4cccc(C)c4)c4ccccc4n3)cc2)cc1`, for which the “inhibition zone (IZ)” value in the assay on Klebsiella pneumoniae is recorded as 25 mm; in the assay on Pseudomonas aeruginosa it was 26 mm; in the assay with Bacillus cereus it was 24 mm; with Candida albicans it was 27 mm; in the assay with Staphylococcus aureus, 22 mm; with Aspergillus niger, 23 mm. In the assay on Escherichia coli, the “inhibition zone (IZ)” value is listed as 24 mm. Moreover, the MIC is 25 µg/mL (≈ 51 µM) with Klebsiella pneumoniae (setting [2]); 50 µg/mL (≈ 102 µM) with Pseudomonas aeruginosa (setting [3]); 25 µg/mL (≈ 51 µM) with Bacillus cereus (Bacillus cereus, MTCC 430); 50 µg/mL (≈ 102 µM) against Candida albicans; 50 µg/mL (≈ 102 µM) in the assay with Staphylococcus aureus (Staphylococcus aureus, MTCC 96); 50 µg/mL (≈ 102 µM) in the assay on Aspergillus niger. For the same compound, the MIC is 100 µg/mL (≈ 204 µM) in assay [1] and 200 µg/mL (≈ 408 µM) with Escherichia coli (Escherichia coli, MTCC 739). In addition, the “inhibition (INH)” value in assay [1] turned out to be 96%.

With `Cc1ccc(NC(=O)Nc2ccc(-c3nc(Oc4cccc(C)c4)c4ccccc4n3)cc2)cc1`, the “inhibition zone (IZ)” value is listed as 24 mm in the assay on Klebsiella pneumoniae; 27 mm in the assay with Pseudomonas aeruginosa; 24 mm with Bacillus cereus; 24 mm in the assay on Candida albicans; 23 mm with Staphylococcus aureus; 21 mm in the assay with Aspergillus niger. Besides, the “inhibition zone (IZ)” value in the assay on Escherichia coli is 24 mm. The MIC with Klebsiella pneumoniae (setting [2]) turned out to be 50 µg/mL (≈ 109 µM); with Pseudomonas aeruginosa (setting [3]) it was 25 µg/mL (≈ 54.3 µM); with Bacillus cereus (Bacillus cereus, MTCC 430), 250 µg/mL (≈ 543 µM); in the assay on Candida albicans, 50 µg/mL (≈ 109 µM); against Staphylococcus aureus (Staphylococcus aureus, MTCC 96), 100 µg/mL (≈ 217 µM); against Aspergillus niger, 200 µg/mL (≈ 434 µM). For the same compound, the MIC in assay [1] worked out at 200 µg/mL (≈ 434 µM); with Escherichia coli (Escherichia coli, MTCC 739), 25 µg/mL (≈ 54.3 µM). In addition, in assay [1], the “inhibition (INH)” value was 95%.

As to `NC(=O)c1cnccn1` [PYRAZINAMIDE], in assay [1], the “inhibition (INH)” value came out at 99% and inhibition of growth (MIC) required 6.25 µg/mL (≈ 50.8 µM).

Turning to `CC1(C)S[C@@H]2[C@H](NC(=O)[C@H](N)c3ccccc3)C(=O)N2[C@H]1C(=O)O` [AMPICILLIN], the “inhibition zone (IZ)” value in the assay with Klebsiella pneumoniae turned out to be 33 mm; with Pseudomonas aeruginosa, 28 mm; with Bacillus cereus it was 28 mm; with Staphylococcus aureus, 30 mm; in the assay with Escherichia coli, 31 mm. In addition, the MIC is 25 µg/mL (≈ 71.5 µM) with Klebsiella pneumoniae (setting [2]); 25 µg/mL (≈ 71.5 µM) against Pseudomonas aeruginosa (setting [3]); 12.5 µg/mL (≈ 35.8 µM) with Bacillus cereus (Bacillus cereus, MTCC 430); 12.5 µg/mL (≈ 35.8 µM) with Staphylococcus aureus (Staphylococcus aureus, MTCC 96); 6.25 µg/mL (≈ 17.9 µM) against Escherichia coli (Escherichia coli, MTCC 739).

With `Cc1cccc(Oc2nc(-c3ccc(NC(=O)Nc4ccccc4)cc3)nc3ccccc23)c1`, the “inhibition zone (IZ)” value with Klebsiella pneumoniae was found to be 19 mm; with Pseudomonas aeruginosa, 21 mm; in the assay with Bacillus cereus, 20 mm; with Candida albicans, 23 mm; with Staphylococcus aureus it was 22 mm; with Aspergillus niger it was 22 mm. Besides, the “inhibition zone (IZ)” value in the assay with Escherichia coli stood at 23 mm. Moreover, the MIC in the assay with Klebsiella pneumoniae (setting [2]) is 100 µg/mL (≈ 224 µM); against Pseudomonas aeruginosa (setting [3]), 62.5 µg/mL (≈ 140 µM); against Bacillus cereus (Bacillus cereus, MTCC 430), 250 µg/mL (≈ 560 µM); with Candida albicans, 250 µg/mL (≈ 560 µM); in the assay on Staphylococcus aureus (Staphylococcus aureus, MTCC 96), 200 µg/mL (≈ 448 µM); against Aspergillus niger, 200 µg/mL (≈ 448 µM). Also, the minimum inhibitory concentration (MIC) in assay [1] is 250 µg/mL (≈ 560 µM); in the assay on Escherichia coli (Escherichia coli, MTCC 739), 100 µg/mL (≈ 224 µM). In addition, the “inhibition (INH)” value in assay [1] is listed as 95%.

As for `CO[C@H]1/C=C/O[C@@]2(C)Oc3c(C)c(O)c4c(O)c(c(/C=N/N5CCN(C)CC5)c(O)c4c3C2=O)NC(=O)/C(C)=C\C=C\[C@H](C)[C@H](O)[C@@H](C)[C@@H](O)[C@@H](C)[C@H](OC(C)=O)[C@@H]1C` [RIFAMPIN], in assay [1], the “inhibition (INH)” value was determined as 99% and the MIC stood at 0.25 µg/mL (≈ 0.304 µM).

Consider `Cc1cccc(Oc2nc(-c3ccc(NC(=O)Nc4ccc(F)cc4)cc3)nc3ccccc23)c1`, for which the “inhibition zone (IZ)” value in the assay with Klebsiella pneumoniae was determined as 21 mm; in the assay with Pseudomonas aeruginosa it was 23 mm; in the assay with Bacillus cereus, 21 mm; in the assay with Candida albicans, 26 mm; with Staphylococcus aureus, 22 mm; in the assay on Aspergillus niger, 23 mm. Besides, in the assay with Escherichia coli, the “inhibition zone (IZ)” value came to 23 mm. The MIC amounted to 200 µg/mL (≈ 431 µM) with Klebsiella pneumoniae (setting [2]); 100 µg/mL (≈ 215 µM) in the assay on Pseudomonas aeruginosa (setting [3]); 100 µg/mL (≈ 215 µM) in the assay with Bacillus cereus (Bacillus cereus, MTCC 430); 12.5 µg/mL (≈ 26.9 µM) with Candida albicans; 200 µg/mL (≈ 431 µM) in the assay with Staphylococcus aureus (Staphylococcus aureus, MTCC 96); 25 µg/mL (≈ 53.8 µM) with Aspergillus niger. Besides, the MIC in assay [1] came out at 62.5 µg/mL (≈ 135 µM); in the assay with Escherichia coli (Escherichia coli, MTCC 739), 62.5 µg/mL (≈ 135 µM). The “inhibition (INH)” value in assay [1] turned out to be 97%.

With `COc1ccc(NC(=O)Nc2ccc(-c3nc(Oc4cccc(C)c4)c4ccccc4n3)cc2)cc1`, the “inhibition zone (IZ)” value with Klebsiella pneumoniae is on record as 26 mm; in the assay with Pseudomonas aeruginosa it was 26 mm; in the assay on Bacillus cereus, 22 mm; in the assay with Candida albicans it was 25 mm; in the assay with Staphylococcus aureus it was 23 mm; in the assay with Aspergillus niger it was 23 mm. Further, in the assay with Escherichia coli, the “inhibition zone (IZ)” value stood at 24 mm. Also, the MIC against Klebsiella pneumoniae (setting [2]) was found to be 200 µg/mL (≈ 420 µM); with Pseudomonas aeruginosa (setting [3]), 25 µg/mL (≈ 52.5 µM); against Bacillus cereus (Bacillus cereus, MTCC 430), 50 µg/mL (≈ 105 µM); in the assay on Candida albicans, 25 µg/mL (≈ 52.5 µM); in the assay on Staphylococcus aureus (Staphylococcus aureus, MTCC 96) it was 25 µg/mL (≈ 52.5 µM); against Aspergillus niger, 50 µg/mL (≈ 105 µM). Besides, the MIC in assay [1] stood at 62.5 µg/mL (≈ 131 µM); with Escherichia coli (Escherichia coli, MTCC 739) it was 200 µg/mL (≈ 420 µM). The “inhibition (INH)” value in assay [1] is listed as 94%.

Regarding `CCOc1ccc(NC(=S)Nc2ccc(-c3nc(Oc4cccc(C)c4)c4ccccc4n3)cc2)cc1`, the “inhibition zone (IZ)” value is reported as 23 mm with Klebsiella pneumoniae; 26 mm in the assay with Pseudomonas aeruginosa; 19 mm with Bacillus cereus; 22 mm with Candida albicans; 22 mm in the assay with Staphylococcus aureus; 26 mm in the assay with Aspergillus niger. In addition, the “inhibition zone (IZ)” value with Escherichia coli amounted to 24 mm. Moreover, the MIC against Klebsiella pneumoniae (setting [2]) stood at 25 µg/mL (≈ 49.3 µM); in the assay on Pseudomonas aeruginosa (setting [3]), 12.5 µg/mL (≈ 24.7 µM); in the assay on Bacillus cereus (Bacillus cereus, MTCC 430), 100 µg/mL (≈ 197 µM); against Candida albicans it was 50 µg/mL (≈ 98.7 µM); with Staphylococcus aureus (Staphylococcus aureus, MTCC 96) it was 12.5 µg/mL (≈ 24.7 µM); against Aspergillus niger, 25 µg/mL (≈ 49.3 µM). Also, the MIC in assay [1] came to 200 µg/mL (≈ 395 µM); in the assay on Escherichia coli (Escherichia coli, MTCC 739), 62.5 µg/mL (≈ 123 µM). In addition, the “inhibition (INH)” value in assay [1] is reported as 95%.

For GENTAMICIN, the MIC in the assay with Klebsiella pneumoniae was found to be 25 µg/mL; against Pseudomonas aeruginosa it was 12.5 µg/mL; in the assay on Bacillus cereus, 6.25 µg/mL; in the assay with Staphylococcus aureus, 6.25 µg/mL; against Escherichia coli it was 12.5 µg/mL. For the same compound, the inhibition zone (IZ) with Klebsiella pneumoniae and in the assay on Bacillus cereus was 30 mm each time.

With `OC(Cn1cncn1)(Cn1cncn1)c1ccc(F)cc1F` [FLUCONAZOLE], the “inhibition zone (IZ)” value turned out to be 31 mm in the assay on Candida albicans and 30 mm with Aspergillus niger. The MIC against Candida albicans is 12.5 µg/mL (≈ 40.8 µM); with Aspergillus niger it was 6.25 µg/mL (≈ 20.4 µM).

With `CC[C@@H](CO)NCCN[C@@H](CC)CO` [ETHAMBUTOL], in assay [1], the “inhibition (INH)” value is listed as 99% and the MIC is 3.12 µg/mL (≈ 15.3 µM).

In turn, `NNC(=O)c1ccncc1` [ISONIAZID] displayed an MIC in assay [1] of 0.2 µg/mL (≈ 1.46 µM).

The record behind these values is ChEMBL document CHEMBL2424558, “Synthesis and biological evaluation of novel quinazoline derivatives obtained by Suzuki CC coupling” (2013).
